In patent US20080312303A1, “Imidazole Derivatives and Their Use for Modulating the Gabaa Receptor Complex” (NeuroSearch A/S, priority 2005, published 2008) one finds IC50 data, which are given here for three molecules.

The target in the assay is benzodiazepine modulatory unit (GABAA receptor complex). The assay can be described thus: In vitro inhibition of 3H-flunitrazepam (3H-FNM) binding. Details: species or system rat. To be noted: inhibition of specific binding of 3H-FNM (1 nM); cerebral cortex membranes from male Wistar rats; 40 min at 2° C. How it is done: In vitro inhibition of ^3H-flunitrazepam (^3H-FNM) binding
The GABA recognition site and the benzodiazepine modulatory unit can selectively be labelled with ^3H-flunitrazepam.
Preparations are performed at 0-4° C. unless otherwise indicated. Cerebral cortex from male Wistar rats (150-200 g) is homogenised for 5-10 sec in 20 ml Tris-HCl (30 mM, pH 7.4) using an Ultra-Turrax homogeniser. The suspension is centrifuged at 27,000×g for 15 min and the pellet is washed three times with buffer (centrifuged at 27,000×g for 10 min). The washed pellet is homogenized in 20 ml of buffer and incubated on a water bath (37° C.) for 30 min to remove endogenous GABA and then centrifuged for 10 min at 27,000×g. The pellet is then homogenized in buffer and centrifuged for 10 min at 27,000×g. The final pellet is resuspended in 30 ml buffer and the preparation is frozen and stored at −20° C.
The membrane preparation is thawed and centrifuged at 2° C. for 10 min at 27,000×g. The pellet is washed twice with 20 ml 50 mM Tris-citrate, pH 7.1 using an Ultra-Turrax homogeniser and centrifuged for 10 min at 27,000×g. The final pellet is resuspended in 50 mM Tris-citrate, pH 7.1 (500 ml buffer per g of original tissue), and then used for binding assays. Aliquots of 0.5 ml tissue are added to 25 μl of test solution and 25 μl of ^3H-FNM (1 nM, final concentration), mixed and incubated for 40 min at 2° C. Non-specific binding is determined using Clonazepam (1 μM, final concentration). After incubation the samples are added 5 ml of ice-cold buffer and poured directly onto Whatman GF/C glass fibre filters under suction and immediately washed with 5 ml ice-cold buffer. The amount of radioactivity on the filters is determined by conventional liquid scintillation counting. Specific binding is total binding minus non-specific binding.
25-75% inhibition of specific binding must be obtained, before calculation of an IC50.
The test value will be given as IC50 (the concentration (μM) of the test substance which inhibits the specific binding of ^3H-FNM by 50%).
As to `Nc1cccc(-c2cn(-c3cccc(-c4ccccc4)c3)cn2)c1` [1-Biphenyl-3-yl-4-(3-amino-phenyl)-1H-imidazole], the IC50 stood at 800 nM.

`COc1ccc(-c2cn(-c3cccc(-c4ccccc4)c3)cn2)cc1` [1-Biphenyl-3-yl-4-(4-methoxy-phenyl)-1H-imidazole] had a 50% inhibitory concentration (IC50) of 460 nM.

`N#Cc1cccc(-n2cnc(-c3ccccc3)c2)c1` [3-(4-Phenyl-imidazol-1-yl)-benzonitrile]: the IC50 was determined as 100 nM.

The IC50 is the midpoint of a concentration-inhibition curve. High values mean a need for much substance, low ones inhibition by little substance.
